Measured values published in patent publication US20140256660A1, “ANTIBIOTIC CONJUGATES LINKED WITH STEROID DRUGS” (Allergan, Inc., priority 2013, published 2014).

System: human recombinant carboxylesterases
Assay: In vitro metabolic stability (rate of metabolite formation) in human recombinant carboxylesterases
Type: in vitro ADME
Settings: human recombinant carboxylesterases 0.1 mg/mL, 1 μM test compound, pH 6.0, 37° C.
Procedure: Dutch Belted rabbits were euthanized with an overdose of sodium pentobarbital. The corneas were collected and homogenized in ice-cold potassium chloride solution (pH=7.4). The homogenate was centrifuged at 755×g for 30 min at 4° C. and aliquots of the supernatant were stored at or below −70° C. until metabolism experiments were conducted. Prior to storing the homogenates an aliquot was removed for determination of protein concentrations by calculating the 260 nm absorbance using a spectrophotometer. Human recombinant carboxylesterases were purchased from a commercial vendor (BD Gentest™, Bedford, Mass.)
All metabolic stability experiments were performed in triplicate in 96-well plate format. The final incubation mixture contained 1 μM test compound, 0.3 mg/mL corneal protein homogenate or 0.1 mg/mL human recombinant carboxylesterase mixture in a final volume of 0.5 mL 0.1 M potassium phosphate buffer (pH=6.0). The final percentage of solvent in the incubation was less than 1.0% to prevent inhibition of enzymatic activity. Following a pre-incubation at 37° C., test article (i.e. ester linked hybrids) was added to initiate the reaction. At designated time points (typically less than 60 minutes to capture the linear range of metabolite formation), 0.05 mL aliquots were removed from the incubation mixtures using a clean pipet tip and immediately placed in organic solvent to stop any esterase activity.
Hydrolysis of the metabolites was confirmed to be due to esterase activity and not chemical lability. The samples were analyzed by liquid chromatography with mass spectrometry (LC-MS/MS) detection to determine the metabolite concentrations resulting from the metabolism of ester linked hybrids. Internal standards were used to compensate for variability from sample processing, chromatographic elution, mass spectrometer response and ion suppression by matrix components.

Compound | Rate of formation Metabolite 1 (Prednisolone) (metabolite Prednisolone) [nM/min/mg] | Rate of formation Metabolite 2 (Moxifloxacin) [nM/min/mg] | further results
COc1c(N2CCNC(C)C2)c(F)cc2c(=O)c(C(=O)OCOC(=O)OCC(=O)[C@]3(O)CC[C@@H]4[C@H]5CCC6=CC(=O)C=C[C@@]6(C)C5[C@H](O)C[C@]43C)cn(C3CC3)c12 (relative stereo) [Compound 42, [({2-[(8R,10S,11R,13R,14R,17S)-11,17-dihydroxy-10,13-dimethyl-3-oxo-6,7,8,9,10,11,12,13,14,15,16,17-dodecahydro-3H-cyclopenta[a]phenanthren-17-yl]-2-oxoethoxy}carbonyl)oxy]methyl rel-1-cyclopropyl-6-fluoro-8-methoxy-7-(3-methylpiperazin-1-yl)-4-oxo-1,4-dihydroquinoline-3-carboxylate] | 633 ± 85 |  | Rate of formation Metabolite 2 (Gatifloxacin) (metabolite Gatifloxacin): 668 ± 102 nM/min/mg
C[C@H]1C[C@H]2[C@@H]3CCC4=CC(=O)C=C[C@]4(C)[C@@]3(F)[C@@H](O)C[C@]2(C)[C@@]1(O)C(=O)COC(=O)CCC(=O)OC[C@@H](NC(=O)C(Cl)Cl)[C@H](O)c1ccc([N+](=O)[O-])cc1 (relative stereo) [Compound 73, (2R,3R)-2-[(dichloroacetyl)amino]-3-hydroxy-3-(4-nitrophenyl)propyl 2-[(8S,9R,10S,11S,13S,14S,16S,17R)-9-fluoro-11,17-dihydroxy-10,13,16-trimethyl-3-oxo-6,7,8,9,10,11,12,13,14,15,16,17-dodecahydro-3H-cyclopenta[a]phenanthren-17-yl]-2-oxoethyl rel-butanedioate] |  |  | Rate of formation Metabolite 1 (Betamethasone) (metabolite Betamethasone): 1440 ± 120 nM/min/mg; Rate of formation Metabolite 2 (Chloramphenicol) (metabolite Chloramphenicol): 107 ± 13 nM/min/mg
COc1c(N2C[C@@H]3CCCN[C@@H]3C2)c(F)cc2c(=O)c(C(=O)OCOC(=O)OCC(=O)[C@]3(O)CC[C@@H]4[C@H]5CCC6=CC(=O)C=C[C@@]6(C)C5[C@H](O)C[C@]43C)cn(C3CC3)c12 (relative stereo) [Compound 64, [({2-[(8R,10S,11R,13R,14R,17S)-11,17-dihydroxy-10,13-dimethyl-3-oxo-6,7,8,9,10,11,12,13,14,15,16,17-dodecahydro-3H-cyclopenta[a]phenanthren-17-yl]-2-oxoethoxy}carbonyl)oxy]methyl rel-1-cyclopropyl-6-fluoro-8-methoxy-7-[(4aS,7aS)-octahydro-6H-pyrrolo[3,4-b]pyridin-6-yl]-4-oxo-1,4-dihydroquinoline-3-carboxylate] | 641 ± 22 | 644 ± 20 | 
COc1c(N2CC3CCCN(C(=O)OCOC(=O)CCC(=O)OCC(=O)[C@]4(O)CC[C@@H]5[C@H]6CCC7=CC(=O)C=C[C@@]7(C)[C@@H]6[C@H](O)C[C@]54C)C3C2)c(F)cc2c(=O)c(C(=O)O)cn(C3CC3)c12 (relative stereo) [Compound 59, rel-1-cyclopropyl-7-[1-({[(4-{2-[(8R,9R,10S,11R,13R,14R,17S)-11,17-dihydroxy-10,13-dimethyl-3-oxo-6,7,8,9,10,11,12,13,14,15,16,17-dodecahydro-3H-cyclopenta[a]phenanthren-17-yl]-2-oxoethoxy}-4-oxobutanoyl)oxy]methoxy}carbonyl)octahydro-6H-pyrrolo[3,4-b]pyridin-6-yl]-6-fluoro-8-methoxy-4-oxo-1,4-dihydroquinoline-3-carboxylic acid] | 416 ± 192 | 350 ± 180 | 
COc1c(N2CC3CCCN(C(=O)OCOC(=O)CCC(=O)N[C@@H](C(=O)OCC(=O)[C@]4(O)CCC5C6CCC7=CC(=O)C=C[C@@]7(C)C6[C@H](O)C[C@]54C)C(C)C)C3C2)c(F)cc2c(=O)c(C(=O)O)cn(C3CC3)c12 (relative stereo) [Compound 61, rel-1-cyclopropyl-7-{1-[(10R)-14-[(10S,11R,13R,17S)-11,17-dihydroxy-10,13-dimethyl-3-oxo-6,7,8,9,10,11,12,13,14,15,16,17-dodecahydro-3H-cyclopenta[a]phenanthren-17-yl]-5,8,11,14-tetraoxo-10-(propan-2-yl)-2,4,12-trioxa-9-azatetradecan-1-oyl]octahydro-6H-pyrrolo[3,4-b]pyridin-6-yl}-6-fluoro-8-methoxy-4-oxo-1,4-dihydroquinoline-3-carboxylic acid] | 11.8 ± 0.5 | 18.5 ± 1.7 | 
COc1c(N2CCNC(C)C2)c(F)cc2c(=O)c(C(=O)OC(C)OC(=O)OCC(=O)[C@]3(O)CC[C@@H]4[C@H]5CCC6=CC(=O)C=C[C@@]6(C)C5[C@H](O)C[C@]43C)cn(C3CC3)c12 (relative stereo) [Compound 43, 1-[({2-[(8R,10S,11R,13R,14R,17S)-11,17-dihydroxy-10,13-dimethyl-3-oxo-6,7,8,9,10,11,12,13,14,15,16,17-dodecahydro-3H-cyclopenta[a]phenanthren-17-yl]-2-oxoethoxy}carbonyl)oxy]ethyl rel-1-cyclopropyl-6-fluoro-8-methoxy-7-(3-methylpiperazin-1-yl)-4-oxo-1,4-dihydroquinoline-3-carboxylate] | 298 ± 13 |  | Rate of formation Metabolite 2 (Gatifloxacin) (metabolite Gatifloxacin): 419 ± 8 nM/min/mg
COc1c(N2CCNC(C)C2)c(F)cc2c(=O)c(C(=O)OCCCC(=O)OCC(=O)[C@]3(O)CC[C@@H]4[C@H]5CCC6=CC(=O)C=C[C@@]6(C)C5[C@H](O)C[C@]43C)cn(C3CC3)c12 (relative stereo) [Compound 41, 4-{2-[(8R,10S,11R,13R,14R,17S)-11,17-dihydroxy-10,13-dimethyl-3-oxo-6,7,8,9,10,11,12,13,14,15,16,17-dodecahydro-3H-cyclopenta[a]phenanthren-17-yl]-2-oxoethoxy}-4-oxobutyl rel-1-cyclopropyl-6-fluoro-8-methoxy-7-(3-methylpiperazin-1-yl)-4-oxo-1,4-dihydroquinoline-3-carboxylate] |  |  | Rate of formation Metabolite 1 (Gatifloxacin) (metabolite Gatifloxacin): 7.60 ± 2.1 nM/min/mg; Rate of formation Metabolite 2 (Prednisolone) (metabolite Prednisolone): 74.6 ± 4.1 nM/min/mg
